From patent publication US7547690B2, “Compounds for the treatment of Hepatitis C” (Bristol-Myers Squibb Company, priority 2007, dated 2009)
Read-outs that look alike come from different tables or passages of the source.

Key:
HCV replicon cells = assay: HCV replicon FRET / luciferase assay; assay type: cell-based
Method in brief: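 HCV replicon cells (with or without Renilla luciferase reporter) incubated with titrated compounds at 37° C; cytotoxicity read by Alamar blue. Replicon activity then read by NS3 cleavage of EDANS/DABCYL FRET peptide (20 μM final, 340/490 nm kinetic) or by luciferase; background from highest control-inhibitor wells subtracted; EC50 = concentration giving 50% signal reduction.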

HCV NS5B = molecular target: T1, HCV NS5B (Hepatitis C virus genotype 1b, UniProt Q9WMX2); assay: HCV NS5B RdRp enzyme assay (standard / modified); assay type: biochemical; details: standard or modified assay not specified
T1 construct: The protein was expressed with an 18 amino acid C-terminal truncation to enhance the solubility; made in house; host or cells: E. coli BL21(DE3)
T1 sequence (Q9WMX2 2420-2992): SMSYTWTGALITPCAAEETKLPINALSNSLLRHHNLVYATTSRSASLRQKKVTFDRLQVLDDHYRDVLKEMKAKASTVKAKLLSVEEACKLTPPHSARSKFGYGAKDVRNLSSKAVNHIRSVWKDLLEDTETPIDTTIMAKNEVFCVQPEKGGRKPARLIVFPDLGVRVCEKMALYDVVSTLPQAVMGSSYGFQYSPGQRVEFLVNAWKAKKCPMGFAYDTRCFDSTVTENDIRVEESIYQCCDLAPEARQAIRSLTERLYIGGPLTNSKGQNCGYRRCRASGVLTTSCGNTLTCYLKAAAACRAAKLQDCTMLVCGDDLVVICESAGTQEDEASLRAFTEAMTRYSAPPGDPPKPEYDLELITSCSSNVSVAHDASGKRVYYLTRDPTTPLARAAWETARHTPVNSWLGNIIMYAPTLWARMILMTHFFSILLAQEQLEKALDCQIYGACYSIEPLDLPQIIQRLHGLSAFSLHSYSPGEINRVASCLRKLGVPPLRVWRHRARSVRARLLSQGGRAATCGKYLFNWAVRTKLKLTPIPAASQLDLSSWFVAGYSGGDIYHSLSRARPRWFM
Method in brief: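 Genotype 1b NS5B, 18-aa C-terminal truncation, E. coli-expressed; polyA template with biotin-oligo-dT12 primer, 3H-UTP (0.29 μM UTP), pH 7.5 Hepes, 2% DMSO, 30 °C, SPA read. Standard: 28 nM enzyme, 6 nM template, 180 nM primer, 60 min. Modified: 1.75 nM enzyme, 0.36 nM template, 20 nM bead-precaptured primer, 4 h; IC50 from seven concentrations, four-parameter fit.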

[1] = Hepatitis C virus, 50% reduction in FRET or luciferase activity in HCV replicon cells, read-out: EC50
[2] = HCV RdRp genotype 1b, read-out: IC50
[3] = 50% reduction in FRET or luciferase activity in HCV replicon cells, read-out: EC50

COc1ccc2c(c1)C1CC1(C(=O)N1CCN3CCC1C3)Cn1c-2c(C2CCCCC2)c2ccc(C(=O)NS(=O)(=O)N(C)C)cc21 (centres unmarked)
EC50 (HCV replicon cells; [1]): 2.4 to 500 nM | IC50 (HCV NS5B; [2]): 2.4 to 500 nM

COc1ccc2c(c1)C1CC1(C(=O)N1C[C@H]3C[C@@H]1CN3C(=O)OC(C)(C)C)Cn1c-2c(C2CCCCC2)c2ccc(C(=O)NS(=O)(=O)N3CCC3)cc21 (some centres unmarked)
EC50 (HCV replicon cells; [1]): 2.4 to 500 nM | IC50 (HCV NS5B; [2]): 2.4 to 500 nM

CCN1C[C@H]2C[C@@H]1CN2C(=O)C12CC1c1cc(OC)ccc1-c1c(C3CCCCC3)c3ccc(C(=O)NS(=O)(=O)N4CCC4)cc3n1C2 (some centres unmarked)
EC50 (HCV replicon cells; [1]): 2.4 to 500 nM | IC50 (HCV NS5B; [2]): 2.4 to 500 nM

COc1ccc2c(c1)C1CC1(C(=O)N1C[C@H]3C[C@@H]1CN3CC(C)C)Cn1c-2c(C2CCCCC2)c2ccc(C(=O)NS(=O)(=O)N3CCC3)cc21 (some centres unmarked)
EC50 (HCV replicon cells; [1]): 2.4 to 500 nM | IC50 (HCV NS5B; [2]): 2.4 to 500 nM

COc1ccc2c(c1)C1CC1(C(=O)N1C[C@@H]3C[C@H]1CN3C)Cn1c-2c(C2CCCCC2)c2ccc(C(=O)NS(=O)(=O)N(C)C)cc21 (some centres unmarked)
EC50 (HCV replicon cells; [1]): 2.4 to 500 nM | IC50 (HCV NS5B; [2]): < 20 nM

CCN1C[C@H]2C[C@@H]1CN2C(=O)C12CC1c1cc(OC)ccc1-c1c(C3CCCCC3)c3ccc(C(=O)NS(=O)(=O)C4CC4)cc3n1C2 (some centres unmarked) [drawing 43]
EC50 (HCV replicon cells; [1]): 2.4 to 500 nM | IC50 (HCV NS5B; [2]): < 20 nM

CCN1C[C@H]2C[C@@H]1CN2C(=O)C12CC1c1cc(OC)ccc1-c1c(C3CCCCC3)c3ccc(C(=O)NS(=O)(=O)C4CC4)cc3n1C2 (some centres unmarked) [drawing 44]
EC50 (HCV replicon cells; [3]): 2.4 to 500 nM | IC50 (HCV NS5B; [2]): 2.4 to 500 nM

COc1ccc2c(c1)C1CC1(C(=O)N1CCN3CCC1CC3)Cn1c-2c(C2CCCCC2)c2ccc(C(=O)NS(=O)(=O)C3CC3)cc21 (centres unmarked) [drawing 50]
EC50 (HCV replicon cells; [1]): 2.4 to 500 nM | IC50 (HCV NS5B; [2]): 2.4 to 500 nM

COc1ccc2c(c1)C1CC1(C(=O)N1C[C@@H]3C[C@H]1CN3C)Cn1c-2c(C2CCCCC2)c2ccc(C(=O)NS(=O)(=O)C3CC3)cc21 (some centres unmarked) [drawing 51]
EC50 (HCV replicon cells; [3]): > 500 nM | IC50 (HCV NS5B; [2]): 2.4 to 500 nM

COc1ccc2c(c1)C1CC1(C(=O)N1C[C@@H]3C[C@H]1CN3C)Cn1c-2c(C2CCCCC2)c2ccc(C(=O)NS(=O)(=O)C3CC3)cc21 (some centres unmarked) [drawing 53]
EC50 (HCV replicon cells; [3]): 2.4 to 500 nM | IC50 (HCV NS5B; [2]): 2.4 to 500 nM

COc1ccc2c(c1)C1CC1(C(=O)N1CCN3CCC1CC3)Cn1c-2c(C2CCCCC2)c2ccc(C(=O)NS(=O)(=O)C3CC3)cc21 (centres unmarked) [drawing 71]
EC50 (HCV replicon cells; [3]): 2.4 to 500 nM | IC50 (HCV NS5B; [2]): 2.4 to 500 nM

COc1ccc2c(c1)C1CC1(C(=O)N1C[C@@H]3C[C@H]1CN3C)Cn1c-2c(C2CCCCC2)c2ccc(C(=O)NS(=O)(=O)C3CC3)cc21 (some centres unmarked) [drawing 72]
EC50 (HCV replicon cells; [1]): 2.4 to 500 nM | IC50 (HCV NS5B; [2]): < 20 nM

COc1ccc2c(c1)C1CC1(C(=O)N1C[C@@H]3C[C@H]1CN3CC(C)C)Cn1c-2c(C2CCCCC2)c2ccc(C(=O)NS(=O)(=O)C(C)C)cc21 (some centres unmarked) [drawing 94]
EC50 (HCV replicon cells; [1]): 2.4 to 500 nM | IC50 (HCV NS5B; [2]): 2.4 to 500 nM

COc1ccc2c(c1)C1CC1(C(=O)N1C[C@@H]3C[C@H]1CN3CC(C)C)Cn1c-2c(C2CCCCC2)c2ccc(C(=O)NS(=O)(=O)C(C)C)cc21 (some centres unmarked) [drawing 95]
EC50 (HCV replicon cells; [3]): 2.4 to 500 nM | IC50 (HCV NS5B; [2]): 2.4 to 500 nM

COc1ccc2c(c1)[C@@H]1C[C@]1(C(=O)N1C3CCC1C1CCC3N1C)Cn1c-2c(C2CCCCC2)c2ccc(C(=O)NS(=O)(=O)N(C)C)cc21 [drawing 160]
EC50 (HCV replicon cells; Hepatitis C virus): 2.4 to 500 nM | IC50 (HCV NS5B; IC50, HCV RdRp genotype 1b): 2.4 to 500 nM

COc1ccc2c(c1)[C@@H]1C[C@]1(C(=O)N1C3CCC1C1CCC3N1C)Cn1c-2c(C2CCCCC2)c2ccc(C(=O)NS(=O)(=O)N(C)C)cc21 [drawing 161]
EC50 (HCV replicon cells; 50% reduction in FRET or luciferase activity in HCV replicon cells): 2.4 to 500 nM | IC50 (HCV NS5B; HCV RdRp genotype 1b): 2.4 to 500 nM
